# Tests used:
# FKBP12 = FKBP12 (Homo sapiens, UniProt P62942); experiment: FKBP12 PPIase inhibition assay; assay type: biochemical; settings: 10 °C, pH 8.0, 6 nM FKBP12, 60 µM SUC-ALPF-pNA, read-out: FKBP12 K i
# Saccharomyces cerevisiae = Saccharomyces cerevisiae MIC assay (microdilution); assay type: cell-based; settings: RPMI 1640 broth, 37 °C, 24 h, read-out: S. cerevisiae MIC
# Experimental: We additionally assessed the rapalogs for antifungal activity using a standard Saccharomyces cerevisiae MIC assay. As expected, activity was similar to that observed for the mTORC1 pathway assay, likely through inhibition of TOR1 and TOR2.
# Minimum Inhibitory Concentration (MIC) values for each compound were determined using the microdilution method. Briefly, stock solutions of the 6 test rapalogs (6.4 mg mL^−1 in methanol) were diluted 1:50 in RPMI 1640 broth (Sigma-Aldrich) to a working concentration of 128 µg ml^−1, and serially diluted in broth (1:2) in sterile, polypropylene 96-well plates, 100 µL per well. Saccharomyces cerevisiae was cultured in RPMI 1640 broth, 37 °C, 250 r.p.m., 18 h. […] A volume of 100 µL aliquots of this dilution were added to each well and mixed by gentle trituration. Plates were incubated at 37 °C for 24 h. The concentration of compound at which no visible growth was apparent was determined to be the MIC.
# [1] = test system: mTORC1 pathway (p-S6 formation)
# [2] = test system: human macrophages challenged with B. pseudomallei; assay type: cell-based
# FKBP12, sequence (P62942 whole entry, species assumed): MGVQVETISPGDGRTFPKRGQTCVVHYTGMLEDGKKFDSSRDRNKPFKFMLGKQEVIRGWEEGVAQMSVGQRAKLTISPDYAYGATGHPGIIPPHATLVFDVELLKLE
SMILES,Ki (FKBP12) [nM],MIC (Saccharomyces cerevisiae) [µg/mL],IC50 [1] [nM],survival of human macrophages challenged with B. pseudomallei [2]
"COC1CC2CCC(C)C(O)(O2)C(=O)C(=O)N2CCCCC2C(=O)OC(C(C)CC2CCC(O)CC2)CC(=O)C(C)C=C(C)C(O)C(OC)C(=O)C(C)CC(C)C=CC=CC=C1C (stereo not shown) [Compound 1, 39-desmethoxyrapamycin]",2.5,< 0.25,–,–
COC(CC1CCC(C)C(O)(CC(=O)N2CCCCC2C(=O)O)O1)C(C)=CC=CC=CC(C)CC1CCC(O)CC1 (stereo not shown) [Compound 2],> 1000,> 64,1000,–
C\C1=C/C=C/C=C/[C@@H](C)C[C@@H](C)C(=O)[C@H]2CC[C@@H](CC2)OC(=O)[C@@H]2CCCCN2C(=O)C(=O)[C@]2(O)O[C@@H](CC[C@H]2C)C[C@@H]1O [Compound 3],460,> 64,> 1900,–
COC1CC2CCC(C)C(O)(CC(=O)N3CCCCC3C(=O)OC(C(C)CC3CCC(O)CC3)CC(=O)C(C)CC(C)C=CC=CC=C1C)O2 (stereo not shown) [Compound 5],370,< 64,300,–
COC1CC2CCC(C)C(O)(O2)C(=O)C(=O)N2CCCCC2C(=O)OC(C(C)CC2CCC(O)CC2)CC=C(C)C(O)CC(=O)C(C)CC(C)C=CC=CC=C1C (stereo not shown) [Compound 7],7.9,< 2,100,increase the survival
CO[C@H]1C[C@@H]2CC[C@@H](C)[C@@](O)(O2)C(=O)C(=O)N2CCCC[C@H]2C(=O)O[C@H]([C@H](C)C[C@H]2CC[C@H](O)CC2)CC(O)CC(=O)[C@H](C)/C=C(\C)[C@@H](O)CC(=O)[C@H](C)C[C@H](C)/C=C/C=C/C=C/1C (stereo partly shown) [Compound 8],6.5,< 2,–,–
"CO[C@H]1C[C@@H]2CC[C@@H](C)[C@@](O)(O2)C(=O)C(=O)N2CCCC[C@H]2C(=O)O[C@H]([C@H](C)C[C@@H]2CC[C@@H](O)[C@H](OC)C2)CC(=O)[C@H](C)/C=C(\C)[C@@H](O)[C@@H](OC)C(=O)[C@H](C)C[C@H](C)/C=C/C=C/C=C/1C [Rapamycin, reference compound]",–,< 0.25,< 1,–

# From PMC5663706, “Diversity oriented biosynthesis via accelerated evolution of modular gene clusters” (Nature Communications, 2017)
